Results: PMC5263201, “GABAA receptor occupancy by subtype selective GABAAα2,3 modulators: PET studies in humans” (Psychopharmacology, 2016)
Read-outs that look alike come from different tables or passages of the source.

Columns and labels:
[1] = AZD6280; ref parallel multiple ascending dose study; cited from earlier work
GABAA α2β3γ2 [2] = test system: GABAA α2β3γ2; design: method as in Christian et al 2015; details: 1µM test concentration, GABA EC10, % of 1 µM diazepam, mean ±SE, ref Christian et al 2015; cited from earlier work
GABAA α1β2γ2 [3] = test system: GABAA α1β2γ2; design: method as in Christian et al 2015; details: 1µM test concentration, GABA EC10, % of 1 µM diazepam, mean ±SE, ref Christian et al 2015; cited from earlier work
GABAA α1β2γ2 [4] = biological target: GABAA α1β2γ2; design: method as in Christian et al 2015; details: recombinant Sf9 membranes α1β2γ2; [3H]flunitrazepam; mean (SD); ref Christian et al 2015; read-out: Affinity in vitro at BZ binding site (Ki) α1; cited from earlier work
GABAA α3β3γ2 [5] = biological target: GABAA α3β3γ2; design: method as in Christian et al 2015; details: recombinant Sf9 membranes α3β3γ2; [3H]flunitrazepam; mean (SD); ref Christian et al 2015; read-out: Affinity in vitro at BZ binding site (Ki) α3; cited from earlier work
[6] = Binding to human plasma proteins; format: in vitro ADME; details: read-out: unbound fraction of the total plasma drug
[7] = design: method as in AstraZeneca Single Ascending Dose studies; details: ref AstraZeneca Single Ascending Dose studies, cited from earlier work
GABAA α2β3γ2 [8] = biological target: GABAA α2β3γ2; design: method as in Christian et al 2015; details: recombinant Sf9 membranes α2β3γ2; [3H]flunitrazepam; mean (SD); ref Christian et al 2015; read-out: Affinity in vitro at BZ binding site (Ki) α2; cited from earlier work
GABAA α3β3γ2 [9] = test system: GABAA α3β3γ2; design: method as in Christian et al 2015; details: 1µM test concentration, GABA EC10, % of 1 µM diazepam, mean ±SE, ref Christian et al 2015; cited from earlier work
GABAA α5β3γ2 = test system: GABAA α5β3γ2; design: method as in Christian et al 2015; details: 1µM test concentration, GABA EC10, % of 1 µM diazepam, mean ±SE, ref Christian et al 2015; cited from earlier work
Melatonin MT2 = Melatonin MT2 (Homo sapiens, UniProt P49286); assay: Secondary receptor binding profile
[10] = AZD6280 1mg, Part A, 8 subjects
[11] = AZD6280 5mg, Part B, 8 subjects
[12] = AZD6280 20mg, Part A, 8 subjects
[13] = AZD6280 30mg, Part B, 7 subjects
[14] = AZD6280 40mg, Part A, 8 subjects
[15] = AZD6280 60mg, Part B, 8 subjects

Sequence of Melatonin MT2 (P49286 whole entry): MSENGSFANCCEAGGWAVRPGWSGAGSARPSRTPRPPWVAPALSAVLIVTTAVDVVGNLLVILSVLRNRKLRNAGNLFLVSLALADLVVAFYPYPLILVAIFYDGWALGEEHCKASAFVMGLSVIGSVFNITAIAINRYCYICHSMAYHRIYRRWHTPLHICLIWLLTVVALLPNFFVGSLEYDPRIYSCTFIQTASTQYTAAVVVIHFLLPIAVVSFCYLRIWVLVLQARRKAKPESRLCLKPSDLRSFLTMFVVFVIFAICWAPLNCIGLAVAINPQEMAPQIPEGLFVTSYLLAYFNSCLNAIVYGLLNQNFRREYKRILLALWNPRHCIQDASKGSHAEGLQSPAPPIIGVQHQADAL

For `CCCNC(=O)c1nnc2c(-c3cc(OC)ccc3OC)cccc2c1N` [AZD6280], the “maximum tolerated dose (MTD)” value [1] is given as 40 mg, the “Relative efficacy (%DZ) α2” value (GABAA α2β3γ2 [2]) is given as 36±4% and the “Relative efficacy (%DZ) α1” value (GABAA α1β2γ2 [3]) is given as 9±3%. For the same compound, the Ki (GABAA α1β2γ2 [4]) was 0.5 ± 0.2 nM, the Ki (GABAA α3β3γ2 [5]) was 31 ± 17 nM and the fraction unbound [6] was about 0.1. The “Number of subjects with at least one adverse event” value (“Number of subjects” below) [7, 10] was 2 (25) Number (%) of patients, the abnormal coordination [7, 10] was 0 Number (%) of patients and the depersonalisation [7, 10] was 0 Number (%) of patients. The dizziness [7, 10] was 0 Number (%) of patients, the dreamy state [7, 10] was 0 Number (%) of patients and the euphoric mood [7, 10] was 0 Number (%) of patients. For the same compound, the headache [7, 10] was 1 (13) Number (%) of patients, the nystagmus [7, 10] was 0 Number (%) of patients and the somnolence [7, 10] was 0 Number (%) of patients. The abnormal coordination [7, 11] was 0 Number (%) of patients, the depersonalisation [7, 11] was 0 Number (%) of patients and the dizziness [7, 11] was 2 (25) Number (%) of patients. The dreamy state [7, 11] was 0 Number (%) of patients, the euphoric mood [7, 11] was 0 Number (%) of patients and the headache [7, 11] was 1 (13) Number (%) of patients. For the same compound, the nystagmus [7, 11] was 0 Number (%) of patients, the somnolence [7, 11] was 1 (13) Number (%) of patients and the “Number of subjects” value [7, 12] was 6 (75) Number (%) of patients. The abnormal coordination [7, 12] was 0 Number (%) of patients, the depersonalisation [7, 12] was 0 Number (%) of patients and the dizziness [7, 12] was 0 Number (%) of patients. The dreamy state [7, 12] was 0 Number (%) of patients, the euphoric mood [7, 12] was 0 Number (%) of patients and the headache [7, 12] was 2 (25) Number (%) of patients. For the same compound, the nystagmus [7, 12] was 0 Number (%) of patients, the somnolence [7, 12] was 1 (13) Number (%) of patients and the “Number of subjects” value [7, 13] was 2 (29) Number (%) of patients. For the same compound, the abnormal coordination [7, 13] was 0 Number (%) of patients, the depersonalisation [7, 13] was 0 Number (%) of patients and the dizziness [7, 13] was 0 Number (%) of patients. The dreamy state [7, 13] was 0 Number (%) of patients, the euphoric mood [7, 13] was 1 (14) Number (%) of patients and the headache [7, 13] was 0 Number (%) of patients. The nystagmus [7, 13] was 0 Number (%) of patients, the somnolence [7, 13] was 2 (29) Number (%) of patients and the “Number of subjects” value [7, 14] was 6 (75) Number (%) of patients. For the same compound, the abnormal coordination [7, 14] was 0 Number (%) of patients, the depersonalisation [7, 14] was 0 Number (%) of patients and the dizziness [7, 14] was 0 Number (%) of patients. For the same compound, the dreamy state [7, 14] was 0 Number (%) of patients, the euphoric mood [7, 14] was 1 (13) Number (%) of patients and the headache [7, 14] was 0 Number (%) of patients. For the same compound, the nystagmus [7, 14] was 0 Number (%) of patients, the somnolence [7, 14] was 3 (38) Number (%) of patients and the “Number of subjects” value [7, 15] was 7 (88) Number (%) of patients. The abnormal coordination [7, 15] was 1 (13) Number (%) of patients, the depersonalisation [7, 15] was 1 (13) Number (%) of patients and the dizziness [7, 15] was 2 (25) Number (%) of patients. For the same compound, the dreamy state [7, 15] was 1 (13) Number (%) of patients, the euphoric mood [7, 15] was 0 Number (%) of patients and the headache [7, 15] was 1 (13) Number (%) of patients. For the same compound, the nystagmus [7, 15] was 1 (13) Number (%) of patients, the somnolence [7, 15] was 3 (38) Number (%) of patients and the Ki (GABAA α2β3γ2 [8]) was 21 ± 5 nM. For the same compound, the “Relative efficacy (%DZ) α3” value (GABAA α3β3γ2 [9]) was 34±3%, the “Relative efficacy (%DZ) α5” value (GABAA α5β3γ2) was 8±2% and the IC50 (Melatonin MT2) was 664 nM.
